Test results as given in patent publication USRE48461E1, “Modulation of androgen receptor expression” (Ionis Pharmaceuticals, Inc., priority 2012, dated 2021).

Columns and labels:
Format in all cases: cell-based, human
C4-2B cells = test: C4-2B cell proliferation (complete or CSS+DHT medium; Example 30); conditions: 5 days; for Proliferation (% untreated control): C4-2B cells
Procedure: (§1) After a treatment period of 5 days in complete medium or CSS+1 nM DHT medium, the proliferative capacity of the cancer cells was measured with using CellTiter 96® AQueous One or CellTiter-Glo® Solution Cell Proliferation kit (Promega), following the manufacturer's instructions.

PSA mRNA [1] = test: PSA expression in VCaP cells; conditions: RNAiMax, 48 hrs
Procedure: (§2) Cells were plated at 10,000 cells per well. […] After an incubation period of 48 hrs, RNA levels of full length AR, the V7 variant, PSA and TMPRSS2 were measured.
(§3) After an incubation period of 48 hrs, RNA levels of full length AR, the V7 variant, PSA and TMPRSS2 were measured. The data is presented in Tables 108 expressed as percent expression of gene levels compared to the untreated control.
(§4) Cells were plated at 15,000 cells per well and cultured in CSS media for 16 hours. […] After 4 hrs, 1 nM DHT was added. […] After an incubation period of 48 hrs, RNA levels of AR, PSA and TMPRSS2 were measured.

TMPRSS2 mRNA = test: TMPRSS2 expression in C4-2 cells; conditions: 48 hrs; for Percent inhibition of TMPRSS2 expression: C4-2 cells, CSS + DHT medium
Procedure: (§5) Cells were plated at 1,000 cells per well. […] After an incubation period of 48 hrs, RNA levels of AR, PSA and TMPRSS2 were measured.
(§6) Cells were plated at 2,000 cells per well and cultured in CSS media with 1 nM DHT. […] After an incubation period of 48 hrs, RNA levels of AR, PSA and TMPRSS2 were measured.

AR mRNA = test: AR RNA expression in C4-2 cells (complete, CSS+DHT medium); conditions: 48 hrs; for Percent expression of AR: C4-2 cells, CSS + DHT medium
Procedure: as §5, §6

VCaP cells = test: VCaP cell proliferation; conditions: 5 days; for Proliferation (% untreated control): VCaP cells
Procedure: as §1, with “instructions. […] Treatment with ISIS oligonucleotides in CSS+DHT medium reduced the proliferative capacity to a greater extent than treatment with MVD-3100. The proliferative capacity of cells cultured in CSS medium without DHT is 12% of untreated control levels.” for “instructions.”

PSA mRNA [2] = test: PSA expression in C4-2B cells (Example 30); conditions: 48 hrs
Procedure: Cells were plated at 1,000 cells per well. […] ISIS 549148 was included as a negative control. […] After an incubation period of 48 hrs, RNA levels of AR, PSA and TMPRSS2 were measured.
Cells were plated at 2,000 cells per well and cultured in CSS media with 1 nM DHT. […] ISIS 549148 was included as a negative control. […] After an incubation period of 48 hrs, RNA levels of AR, PSA and TMPRSS2 were measured. In the absence of DHT, AR expression in C4-2 cells was 188%, PSA expression was 43% and TMPRSS2 expression was 27% compared to the untreated control.

22RV1 cells = test: 22RV1 cell proliferation (Example 32); conditions: 5 days; for Proliferation (% untreated control): 22RV1 cells, complete medium
Procedure: After a treatment period of 5 days in complete medium, the proliferative capacity of the cancer cells was measured with using CellTiter 96® AQueous One or CellTiter-Glo® Solution Cell Proliferation kit (Promega), following the manufacturer's instructions. […] Treatment with ISIS oligonucleotides in CSS+DHT medium reduced the proliferative capacity to a greater extent than treatment with MVD-3100. The proliferative capacity of cells cultured in CSS medium without DHT is 12% of untreated control levels.

full length AR mRNA = test: Full-length AR RNA in VCaP cells (complete, CSS+DHT medium); conditions: RNAiMax, 48 hrs
Procedure: as §2, §3, §4

[3] = complete medium or CSS+1 nM DHT

## TTGATTTAATGGTTGC [ISIS 560131] (MOE and (S)-cEt gapmer chemistry, further chemistry not given here) [targets intron 1]
C4-2B cells; CSS + DHT medium, 0.04 μM
  Proliferation (% untreated control): 111 % untreated control
C4-2B cells; CSS + DHT medium, 0.2 μM
  Proliferation (% untreated control): 75 % untreated control
C4-2B cells; CSS + DHT medium, 1 μM
  Proliferation (% untreated control): 49 % untreated control
C4-2B cells; CSS + DHT medium, 5.0 μM
  Proliferation (% untreated control): 40 % untreated control
C4-2B cells; complete medium, 0.04 μM
  Proliferation (% untreated control): 93 % untreated control
C4-2B cells; complete medium, 0.2 μM
  Proliferation (% untreated control): 50 % untreated control
C4-2B cells; complete medium, 1 μM
  Proliferation (% untreated control): 50 % untreated control
C4-2B cells; complete medium, 5.0 μM
  Proliferation (% untreated control): 41 % untreated control
C4-2B cells; [3]
  proliferation of C4-2B cells: reduced proliferation of the cells in a dose dependent compared to the control
PSA mRNA [1]; CSS + DHT medium, 1.34 nM
  Percent inhibition of PSA expression: 0%
PSA mRNA [1]; CSS + DHT medium, 4.0 nM
  Percent inhibition of PSA expression: 35%
PSA mRNA [1]; CSS + DHT medium, 13.4 nM
  Percent inhibition of PSA expression: 69%
PSA mRNA [1]; CSS + DHT medium, 40 nM
  Percent inhibition of PSA expression: 73%
PSA mRNA [1]; complete medium, 1.34 nM
  Percent inhibition of PSA expression: 2%
PSA mRNA [1]; complete medium, 4.0 nM
  Percent inhibition of PSA expression: 24%
PSA mRNA [1]; complete medium, 13.4 nM
  Percent inhibition of PSA expression: 35%
PSA mRNA [1]; complete medium, 40 nM
  Percent inhibition of PSA expression: 46%
TMPRSS2 mRNA; 0.04 μM
  Percent inhibition of TMPRSS2 expression: 10%
  Percent inhibition of TMPRSS2 expression in C4-2 cells cultured in complete medium: 29%
TMPRSS2 mRNA; 0.2 μM
  Percent inhibition of TMPRSS2 expression: 17%
  Percent inhibition of TMPRSS2 expression in C4-2 cells cultured in complete medium: 62%
TMPRSS2 mRNA; 1 μM
  Percent inhibition of TMPRSS2 expression: 51%
  Percent inhibition of TMPRSS2 expression in C4-2 cells cultured in complete medium: 76%
TMPRSS2 mRNA; 5.0 μM
  Percent inhibition of TMPRSS2 expression: 78%
  Percent inhibition of TMPRSS2 expression in C4-2 cells cultured in complete medium: 71%
AR mRNA; 0.04 μM
  Percent expression of AR: 88%
  Percent expression of AR in C4-2 cells cultured in complete medium: 48%
AR mRNA; 0.2 μM
  Percent expression of AR: 57%
  Percent expression of AR in C4-2 cells cultured in complete medium: 13%
AR mRNA; 1 μM
  Percent expression of AR: 20%
  Percent expression of AR in C4-2 cells cultured in complete medium: 8%
AR mRNA; 5.0 μM
  Percent expression of AR: 15%
  Percent expression of AR in C4-2 cells cultured in complete medium: 8%
VCaP cells; CSS + DHT medium, 1.34 nM
  Proliferation (% untreated control): 95 % untreated control
VCaP cells; CSS + DHT medium, 4.0 nM
  Proliferation (% untreated control): 65 % untreated control
VCaP cells; CSS + DHT medium, 13.4 nM
  Proliferation (% untreated control): 42 % untreated control
VCaP cells; CSS + DHT medium, 40 nM
  Proliferation (% untreated control): 37 % untreated control
VCaP cells; complete medium, 1.34 nM
  Proliferation (% untreated control): 98 % untreated control
VCaP cells; complete medium, 4.0 nM
  Proliferation (% untreated control): 66 % untreated control
VCaP cells; complete medium, 13.4 nM
  Proliferation (% untreated control): 53 % untreated control
VCaP cells; complete medium, 40 nM
  Proliferation (% untreated control): 48 % untreated control
VCaP cells; [3]
  proliferation of VCaP cells: reduced proliferation of the cells in a dose dependent compared to the control
PSA mRNA [2]; CSS + DHT medium, 0.04 μM
  Percent inhibition of PSA expression: 0%
PSA mRNA [2]; CSS + DHT medium, 0.2 μM
  Percent inhibition of PSA expression: 17%
PSA mRNA [2]; CSS + DHT medium, 1 μM
  Percent inhibition of PSA expression: 50%
PSA mRNA [2]; CSS + DHT medium, 5.0 μM
  Percent inhibition of PSA expression: 61%
PSA mRNA [2]; complete medium, 0.04 μM
  Percent inhibition of PSA expression: 56%
PSA mRNA [2]; complete medium, 0.2 μM
  Percent inhibition of PSA expression: 84%
PSA mRNA [2]; complete medium, 1 μM
  Percent inhibition of PSA expression: 89%
PSA mRNA [2]; complete medium, 5.0 μM
  Percent inhibition of PSA expression: 92%
22RV1 cells; 1.34 nM
  Proliferation (% untreated control): 94 % untreated control
22RV1 cells; 4.0 nM
  Proliferation (% untreated control): 72 % untreated control
22RV1 cells; 13.4 nM
  Proliferation (% untreated control): 50 % untreated control
22RV1 cells; 40 nM
  Proliferation (% untreated control): 17 % untreated control
22RV1 cells
  proliferation of 22RV1 cells: reduced proliferation of the cells in a dose dependent compared to the control
Full length AR mRNA; CSS medium, 1.34 nM
  Percent inhibition of full-length AR: 12%
Full length AR mRNA; CSS medium, 4.0 nM
  Percent inhibition of full-length AR: 16%
Full length AR mRNA; CSS medium, 13.4 nM
  Percent inhibition of full-length AR: 37%
Full length AR mRNA; CSS medium, 40 nM
  Percent inhibition of full-length AR: 38%
Full length AR mRNA; complete medium, 1.34 nM
  Percent inhibition of full-length AR: 0%
Full length AR mRNA; complete medium, 4.0 nM
  Percent inhibition of full-length AR: 59%
Full length AR mRNA; complete medium, 13.4 nM
  Percent inhibition of full-length AR: 77%
Full length AR mRNA; complete medium, 40 nM
  Percent inhibition of full-length AR: 84%
